PMC10987480, “Biological and mutational analyses of CXCR4–antagonist interactions and design of new antagonistic analogs” (Bioscience Reports, 2023)
Positions of bridges follow the written chain, without caps; N, C: chain ends. Non-standard residues stand in square brackets, D forms with d. Residues, ends and D or L forms follow the SMILES beside them. Chains are numbered I, II in the order given. No end group written: not given here. 2Nal = N[C@@H](Cc1ccc2ccccc2c1)C(=O)O; Lys(iPr) = CC(C)NCCCC[C@H](N)C(=O)O

How the values were obtained:
CXCR4 Y116A = molecular target: T1, CXCR4 Y116A (Homo sapiens, UniProt P61073, Y116A); test: Competitive binding to CXCR4 mutant Y116A (12G5, CHO cells); conditions: TM3, class of reduction vs wild-type CXCR4, 12G5 competition, averages of at least three independent experiments
T1 construct: expressed in transfected cells
T1 sequence (P61073 whole entry Y116A): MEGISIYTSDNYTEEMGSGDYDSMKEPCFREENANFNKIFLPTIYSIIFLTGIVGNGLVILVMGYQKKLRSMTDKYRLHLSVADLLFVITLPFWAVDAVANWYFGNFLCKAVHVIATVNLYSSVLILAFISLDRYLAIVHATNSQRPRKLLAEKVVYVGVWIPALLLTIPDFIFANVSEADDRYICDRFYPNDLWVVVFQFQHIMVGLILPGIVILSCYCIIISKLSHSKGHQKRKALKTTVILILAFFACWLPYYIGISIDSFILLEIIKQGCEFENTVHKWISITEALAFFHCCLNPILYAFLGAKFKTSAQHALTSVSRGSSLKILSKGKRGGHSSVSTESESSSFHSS
Protocol: (§1) Plasmid pcDNA3-CXCR4 and mutated pcDNA3-CXCR4 were extracted and transfected into CHO cells using Lipofectamine 2000 according to the manufacturer’s guidelines. The selective medium containing G418 at a concentration of 1.2 mg/ml was applied to isolate stably transfected cells. CHO cells expressing wild-type CXCR4 and mutant CXCR4 were obtained using fluorescence-activated cell sorting (FACS).
(§2) All of the CXCR4 mutants were prepared using PCR technology. Briefly, pairs of asymmetrical primers containing the desired amino acid mutations (Supplementary Tables S1 and S2), each complementary to opposite strands of the pcDNA3–CXCR4, were designed for amplification by Q5® High-Fidelity DNA polymerase and the generation of mutated constructs. The methylated pcDNA3–CXCR4 templates were digested by DpnI. The mutated pcDNA3–CXCR4 was transformed into competent E. coli TOP10 for long-term storage and amplification.
(§3) The procedure for the CXCR4 competitive binding experiments was published previously. Briefly, CXCR4 antibody 12G5 (250 ng/ml) was incubated with 5 × 10^5 cells and varying concentrations of unlabeled compounds in a final volume of 100 μl of assay buffer (PBS with 0.5% BSA and 0.05% NaN3) in 96-well plates for 40 min on ice, after being washed with assay buffer once. The cells were incubated with FITC-conjugated second antibody IgG for 30 min on ice, then washed with assay buffer three times. The fluorescence intensity was measured for excitation at 485 nm and emission at 535 nm using multimode plate reader (PerkinElmer). The IC50 values were calculated using graphpad Prism 7. Experiments were performed at least three times.

CXCR4 D171A = molecular target: T2, CXCR4 D171A (Homo sapiens, UniProt P61073, D171A); test: Competitive binding to CXCR4 mutant D171A (12G5, CHO cells); conditions: TM4, class of reduction vs wild-type CXCR4, 12G5 competition, averages of at least three independent experiments
T2 construct: expressed in transfected cells
T2 sequence (P61073 whole entry D171A): as the sequence (P61073 whole entry Y116A) above, with A116Y, D171A counted along it
Protocol: as §1, §2, §3

CXCR4 I259A = molecular target: T3, CXCR4 I259A (Homo sapiens, UniProt P61073, I259A); test: Competitive binding to CXCR4 mutant I259A (12G5, CHO cells); design: key to the marks not given beside the values; conditions: TM6, class of reduction vs wild-type CXCR4, 12G5 competition, averages of at least three independent experiments
T3 construct: expressed in transfected cells
T3 sequence (P61073 whole entry I259A): as the sequence (P61073 whole entry Y116A) above, with A116Y, I259A counted along it
Protocol: as §1, §2, §3

CXCR4 [1] = conditions: previous studies by others; read-out: IC50, inhibition of calcium mobilization; cited from earlier work
Description: To understand the receptor–ligand recognition mechanism involving CXCR4 and its antagonists, here in this study we conducted a series of comparative analyses of the biological activities and CXCR4 binding sites of eleven known CXCR4 antagonists, including the three mentioned above, using cell-based bioassays, CXCR4 site-directed mutagenesis and computer-aided molecular modeling.

CXCR4 E288Q = molecular target: T4, CXCR4 E288Q (Homo sapiens, UniProt P61073, E288Q); test: Competitive binding to CXCR4 mutant E288Q (12G5, CHO cells); conditions: TM7, class of reduction vs wild-type CXCR4, 12G5 competition, averages of at least three independent experiments
T4 construct: expressed in transfected cells
T4 sequence (P61073 whole entry E288Q): as the sequence (P61073 whole entry Y116A) above, with A116Y, E288Q counted along it
Protocol: as §1, §2, §3

CXCR4 [2] = molecular target: T5, CXCR4 (Homo sapiens, UniProt P61073); test: CXCR4-mediated internalization assay, CHO cells expressing CXCR4-EGFP (confocal); type: cell-based; design: expressed in transfected cells; conditions: same concentrations as in calcium mobilization assay; 50 nM SDF-1α; compared with their effect on calcium mobilization
T5 sequence (P61073 whole entry): as the sequence (P61073 whole entry Y116A) above, with A116Y counted along it
Protocol: Figure 3 The inhibitory effect of the antagonists on CXCR4 internalization CHO cells expressed CXCR4-EGFP conjugates were seeded in 96-well plate with glass bottom. Untreated cells were used as a control. Cells were pre-treated with or without CXCR4 antagonists and internalized with 50 nM SDF-1α (scale bar: 5 μm). The concentrations of the antagonists used were the same as those for the calcium mobilization assay shown above. The data shown were representative of three independent experiments.
CXCR4 and EGFP were amplified using a primer shown in Supplementary Table S1. The pcDNA3 vector was digested by restriction-enzyme EcoR1 and Apa1. CXCR4 was digested by restriction-enzyme EcoR1 and Xba1. EGFP was digested by restriction-enzyme Xba1 and Apa1. CXCR4–EGFP conjugate was constructed by ligation of three DNA fragments using T4 ligase. The vector containing CXCR4 ligated EGFP at the C-terminus was transfected and expressed in CHO cells in 100 μl DMEM medium supplemented with 2% FBS at 1 × 10^5/ml which was seeded in 96-well black plate glass bottom and incubated at 37°C overnight. Following incubation with tested compounds for 10 min, 50 nM of SDF-1α was added to each well and the internalized CXCR4 was observed using a confocal microscopy (Zeiss LSM880).

CXCR4 [3] = molecular target: T5, CXCR4; design: expressed in transfected cells; conditions: previously published result; ref 42 (table footnote; text b13 cites 46); read-out: IC50 (nM), inhibition of 12G5 binding to CXCR4; cited from earlier work
Description: Table 1 Sequences and structures of eleven antagonists | column: IC50 (nM)

Compound	Competitive receptor binding activity, CXCR4 Y116A (CXCR4 Y116A)	Competitive receptor binding activity, CXCR4 D171A (CXCR4 D171A)	Competitive receptor binding activity, CXCR4 I259A (CXCR4 I259A)	IC50 (CXCR4 [1])	Competitive receptor binding activity, CXCR4 E288Q (CXCR4 E288Q)	Effect on blocking CXCR4 endocytosis (in words) (CXCR4 [2])	IC50 (CXCR4 [3])
c1cc(CN2CCCNCCNCCCNCC2)ccc1CN1CCCNCCNCCCNCC1 [AMD3100]	++ (10–29% reduction compared with wild-type CXCR4)	+ (30–60% reduction compared with wild-type CXCR4)	+++	[…]	–	–	–
NCCCCN(Cc1nc2ccccc2[nH]1)[C@H]1CCCc2cccnc21 [AMD11070]	+++	+ (30–60% reduction compared with wild-type CXCR4)	+++	9 nM	–	–	–
CC(C)C[C@@H](N)C(=O)NCC(=O)N[C@H](C)C(=O)N[C@H](CO)C(=O)N[C@H](Cc1c[nH]c2ccccc12)C(=O)N[C@H](Cc1c[nH]cn1)C(=O)N[C@H](CCCNC(=N)N)C(=O)N1CCC[C@@H]1C(=O)N[C@H](CC(=O)O)C(=O)N[C@H](CCCCN)C(=O)NCCCC[C@@H](NC(=O)[C@H]1CCCN1C(=O)[C@@H](CC(C)C)NC(=O)[C@H]1CCCN1C(=O)[C@@H](CCCNC(=N)N)NC(=O)[C@@H](CCCCN)NC(=O)[C@@H](CCC(N)=O)NC(=O)[C@@H](Cc1ccc(O)cc1)NC(=O)CNC(=O)[C@@H](CC(C)C)NC(=O)[C@@H](CS)NC(=O)[C@@H](CS)NC(=O)[C@@H](CCCCN)NC(=O)[C@@H](CC(=O)O)NC(=O)[C@H]1CCCN1C(=O)[C@@H](CCCNC(=N)N)NC(=O)[C@@H](Cc1c[nH]cn1)NC(=O)[C@@H](Cc1c[nH]c2ccccc12)NC(=O)[C@@H](CO)NC(=O)[C@@H](C)NC(=O)CNC(=O)[C@H](N)CC(C)C)C(=O)O [HC4319] (I: H-[dL]G[dA][dS][dW][dH][dR][dP][dD][dK][dC][dC][dL]G[dY][dQ][dK][dR][dP][dL][dP][dK]-OH / II: H-[dL]G[dA][dS][dW][dH][dR][dP][dD][dK]; amide I:22-II:C; N-terminus and C-terminus assumed)	–	+++	+++	–	++ (10–29% reduction compared with wild-type CXCR4)	–	–
CC(C)NCCCC[C@H](NC(=O)[C@H]1CCC(=O)N[C@@H](Cc2ccccc2)C(=O)N[C@@H](Cc2ccc(O)cc2)C(=O)N[C@@H](CCCCNC(C)C)C(=O)N[C@H](CCCNC(=N)N)C(=O)N[C@@H](Cc2ccc3ccccc3c2)C(=O)NCC(=O)N1)C(N)=O [LY2510924] (FY[Lys(iPr)][dR][2Nal]G[dE][Lys(iPr)]-NH2; lactam N-7 (inferred))	–	–	–	–	–	lessened effect	–
I: [dL]G[dA][dS][dW][dH][dR][dP][dD][dK][dC][dC][dL]G[dY][dQ][dK][dR][dP][dL][dP] / II: [dL]G[dA][dS][dW][dH][dR][dP][dD][dK][dC][dC][dL]G[dY][dQ][dK][dR][dP][dL][dP] (disulfide I:11-II:11, I:12-II:12) [DV1 dimer]	+ (30–60% reduction compared with wild-type CXCR4)	++ (10–29% reduction compared with wild-type CXCR4)	+++	–	+ (30–60% reduction compared with wild-type CXCR4)	lessened effect	–
LGASWHRPDKCCLGYQKRPLPQVLLSSWYPTSQLCSKPGVIFLTKRGRQVCADKSKDWVKKLMQQLPVTAR [vMIP-II, viral macrophage-inflammatory protein-II, full-length natural chemokine antagonist produced by human herpesvirus-8; recombinant from Peprotech]	++ (10–29% reduction compared with wild-type CXCR4)	+++	+++	–	++ (10–29% reduction compared with wild-type CXCR4)	–	10 nM
